Laboratory results published in patent US5663174A, “Aromatic sulfonamide derivatives, their use as enzyme inhibitors and pharmaceutical compositions containing them” (Pharno-Wedropharm GmbH, priority 1997, dated 1997).
Read-outs that look alike come from different tables or passages of the source.

Target: T1, bovine pancreatic PLA2 (Bos taurus, UniProt P00593)
T1 construct: from tissue; host or cells: bovine pancreas
Assay: Phospholipase A2 (PLA2) activity, enzyme assay
Assay type: biochemical
Description: Phospholipase A2 (PLA2) activity was measured using bovine pancreatic PLA2 as the enzyme and a sonicated dispersion of 1-stearoyl-2-[C^14 ]-arachidonyl-phosphatidylcholine (56 mCi/mmol) as the substrate in the following manner: 60 ng bovine pancreatic PLA2 was mixed and incubated with buffer and inhibitors (100 mM Tris, pH 8; 100 mM CaCl2; 20 mM EDTA, pH 8) at 37° C. for 10 min. to allow interaction between the enzyme and the drugs. The substrate (38 nCi) in buffer and 0.3% cholate was added to initiate the reaction which continued for 20 min. at 37° C. The total reaction volume was 0.1 ml. The reaction was stopped by adding 0.1 ml of an ice cold EtOH/HOAc 98:2 mixture. Released arachidonic acid was separated from the unreacted substrate via thin layer chromatography on silica gel (solvent system CHCl3 /MeOH/H2 O 14:6:1). The radioactivity of the two spots was quantified using a bioscanner.
Inhibitors were dissolved in buffer^13 and tested in duplicate within each experiment, and each inhibitor was tested in at least two experiments. When necessary, inhibitors were dissolved in DMSO^14. The % inhibition at a given concentration was combined for several experiments and the IC50 determined from a semilog plot of % inhibition vs concentration. Under the condition described the rate of hydrolysis was 20-25% of the substrate being hydrolyzed in absence of inhibitors.
^13 0.01 ml inhibitor solution were used in these experiments.
^14 0.005 ml inhibitor solution were used in these experiments (=5 vol %).

[1] = Table 20, from semilog plot of % inhibition vs concentration, substrate 1-stearoyl-2-[C^14]-arachidonyl-phosphatidylcholine, 37° C., pH 8, 20 min
[2] = Table 20, from semilog plot of % inhibition vs concentration, substrate 1-stearoyl-2-[C^14]-arachidonyl-phosphatidylcholine, 37° C., pH 8, 20 min, read-out: IC50

T1 sequence (P00593 23-145): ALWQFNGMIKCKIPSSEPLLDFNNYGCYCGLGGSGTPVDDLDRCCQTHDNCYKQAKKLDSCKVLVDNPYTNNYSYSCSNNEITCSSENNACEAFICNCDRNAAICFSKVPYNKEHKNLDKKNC

| SMILES | IC50 [2] [µM] | further results |
| --- | --- | --- |
| O=C([C@H](Cc1ccccc1)NS(=O)(=O)c1ccccc1)N1CCNCC1 [Compound 1, N-benzenesulfonyl-L-phenylalanine piperazineamide] |  | IC50 [1]: promotion |
| C[C@H](NS(=O)(=O)c1ccccc1)C(=O)N1CCNCC1 [Compound 2, N-benzenesulfonyl-L-alanine piperazineamide] |  | IC50 [1]: promotion |
| O=C(Nc1ccc(-c2ccccc2)cc1)[C@H](Cc1ccccc1)NS(=O)(=O)c1ccccc1 [Compound 7, N-benzenesulfonyl-L-phenylalanine biphenylamide] | 310 |  |
| O=C(Nc1ccc(-c2ccccc2)cc1)[C@@H]1CCCN1S(=O)(=O)c1ccccc1 [Compound 10, N-benzenesulfonyl-L-proline biphenylamide] | 520 |  |
| O=C(Nc1ccc(-c2ccccc2)cc1)[C@H](Cc1c[nH]c2ccccc12)NS(=O)(=O)c1ccccc1 [Compound 11, N-benzenesulfonyl-L-tryptophane biphenylamide] | 570 |  |
| NCCCCCCNC(=O)[C@H](Cc1ccccc1)NS(=O)(=O)c1cccc2c(Cl)cccc12 [Compound 25, N-(5-chloro-1-naphthalenesulfonyl)-L-phenylalanine-1,6-diaminohexaneamide] |  | IC50 (text example, read-out: IC50 (concentration which would bring about an inhibition of 50%)): 67 µM |
| O=S(=O)(Nc1ccc(-c2ccccc2)cc1)c1cccc2c(Cl)cccc12 [Compound 30, N-biphenyl-5-chloro-1-naphthalenesulfonamide] | 275 |  |
| O=C([C@H](Cc1ccccc1)NS(=O)(=O)c1cccc2cnccc12)N1CCNCC1 [Compound 31, N-(5-isoquinolinesulfonyl)-L-phenylalanine piperazineamide] |  | IC50 [1]: promotion; inhibition at 100 µM: 70.1%; inhibition at 300 µM (at 300 μM): 54% |
| CC(C)[C@H](NS(=O)(=O)c1cccc2cnccc12)C(=O)Nc1ccc(-c2ccccc2)cc1 [Compound 37, N-(5-isoquinolinesulfonyl)-L-valine biphenylamide] | 470 |  |
| O=S(=O)(Nc1ccc(-c2ccccc2)cc1)c1cccc2cnccc12 [Compound 41, N-biphenyl-5-isoquinolinesulfonamide] |  | IC50 [1]: promotion; inhibition at 10 µM (at 10 μM): 31.6%; inhibition at 100 µM: 28.3% |
| O=S(=O)(Nc1ccccc1)c1cccc2c(Cl)cccc12 [compound 43, reference compound] | 190 |  |

More lines, main results first:

| IC50 [2] [µM] | SMILES | further results |
| --- | --- | --- |
| 600 | O=C([C@H](Cc1ccccc1)NS(=O)(=O)c1cccc2c(Cl)cccc12)N1CCNCC1 [Compound 21, N-(5-chloro-1-naphthalenesulfonyl)-L-phenylalanine piperazineamide] |  |
| 310 | CC(C)[C@H](NS(=O)(=O)c1cccc2c(Cl)cccc12)C(=O)N1CCNCC1 [Compound 22, N-(5-chloro-1-naphthalenesulfonyl)-L-valine piperazineamide] |  |
| 263 | NCCCCCCNC(=O)[C@H](Cc1ccccc1)NS(=O)(=O)c1cccc2cnccc12 [Compound 35, N-(5-isoquinolinesulfonyl)-L-phenylalanine-1,6-diaminohexaneamide] |  |
| 130 | O=C(Nc1ccc(-c2ccccc2)cc1)[C@@H]1CCCN1S(=O)(=O)c1cccc2cnccc12 [Compound 38, N-(5-isoquinolinesulfonyl)-L-proline biphenylamide] |  |
| 435 | O=C(Nc1ccc(-c2ccccc2)cc1)[C@H]1CCCN1S(=O)(=O)c1cccc2cnccc12 [Compound 40, N-(5-isoquinolinesulfonyl)-D-proline biphenylamide] |  |
